Source: patent publication US20240270762A1, “PENICILLIN-BINDING PROTEIN INHIBITORS” (priority 2021, published 2024)

Molecular target: T1, PBP2 from Neisseria gonorrhoeae (FA19) (Neisseria gonorrhoeae, UniProt P08149)
T1 construct: made in house
Assay: Bocillin-FL fluorescence polarization competition binding, N. gonorrhoeae PBP2
Settings: fluorescence polarization competition binding assay using Bocillin-FL, read-out: N. gonorrhoeae PBP2 Potency
How it was run: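 Fluorescence polarization competition with 0.1 μM Bocillin-FL (fluorescent penicillin V) against 0.25 μM N. gonorrhoeae FA19 PBP2 in 50 mM Hepes pH 8.0, 300 mM NaCl, 10% glycerol. Boronic acid inhibitors were preincubated with PBP, then Bocillin-FL was added and FP read (490/520 nm) up to 60 min. EC50 is the concentration halving PBP-bound Bocillin-FL.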

T1 sequence (P08149 whole entry): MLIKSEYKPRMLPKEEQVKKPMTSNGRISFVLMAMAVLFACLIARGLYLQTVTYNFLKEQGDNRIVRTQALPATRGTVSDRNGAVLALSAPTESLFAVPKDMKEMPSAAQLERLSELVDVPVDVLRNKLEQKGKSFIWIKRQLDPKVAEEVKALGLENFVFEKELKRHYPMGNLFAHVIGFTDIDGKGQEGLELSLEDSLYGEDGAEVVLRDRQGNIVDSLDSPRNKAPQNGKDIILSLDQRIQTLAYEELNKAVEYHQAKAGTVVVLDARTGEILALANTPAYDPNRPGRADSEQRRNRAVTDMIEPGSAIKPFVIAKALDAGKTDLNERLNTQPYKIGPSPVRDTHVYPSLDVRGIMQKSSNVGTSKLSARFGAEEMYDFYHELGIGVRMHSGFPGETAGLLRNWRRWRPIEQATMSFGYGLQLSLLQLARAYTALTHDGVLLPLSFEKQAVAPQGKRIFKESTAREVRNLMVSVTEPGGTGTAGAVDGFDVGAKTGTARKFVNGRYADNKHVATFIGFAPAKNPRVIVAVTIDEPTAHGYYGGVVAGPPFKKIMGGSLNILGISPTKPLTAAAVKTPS

`CCN1CCN(C(=O)NC(C(=O)N[C@H]2Cc3cccc(C(=O)O)c3OB2O)c2ccc(P(=O)(O)O)c(F)c2O)C(=O)C1=O` (stereo partly drawn) [Example 198, (3R)-3-(2-(4-ethyl-2,3-dioxopiperazine-1-carboxamido)-2-(3-fluoro-2-hydroxy-4-phosphonophenyl)acetamido)-2-hydroxy-3,4-dihydro-2H-benzo[e][1,2]oxaborinine-8-carboxylic acid] was tested, and the EC50 was less than 10 µM.
